According to ChEMBL document CHEMBL4673238, “Discovery of 3-(benzofuran-2-ylmethyl)-1H-indole derivatives as potential autophagy inducers in cervical cancer cells” (Bioorg Med Chem Lett, 2020):
pIC50: −log10 of the molar value. Calls of active or inactive are those of the source. No cut-off for these calls is given here.

What was measured:
Assay type in all cases: functional, cell-based
SiHa [1] = test: Cytotoxicity against human SiHa cells
C-33-A [2] = test: Cytotoxicity against human C-33-A cells
C-33-A [3] = test: Induction of autophagy in human C-33-A cells assessed as decrease in p62 expression at 30 uM incubated for 42 hrs by microscopic analysis
SiHa [4] = test: Induction of autophagy in human SiHa cells assessed as vacuole formation incubated for 24 hrs by microscopic analysis
SiHa [5] = test: Induction of autophagy in human SiHa cells assessed as […] in GFP-LC3 level by fluorescence microscopy
SiHa [6] = test: Induction of autophagy in human SiHa cells assessed as increase in LC3I to LC3II conversion at 30 uM measured upto 42 hrs by microscopic analysis; conditions: time hrs <=42
SiHa [7] = test: Induction of autophagy in human SiHa cells assessed as decrease in p62 expression at 30 uM measured upto 42 hrs by microscopic analysis; conditions: time hrs <=42
C-33-A [8] = test: Induction of autophagy in human C-33-A cells assessed as increase in LC3I to LC3II conversion at 30 uM incubated for 42 hrs by microscopic analysis

Question: `COc1ccc2oc(C(c3ccccc3)c3[nH]c4ccccc4c3C)cc2c1` (stereo not given) was tested. Which pIC50 (SiHa [1]) did it give?
Answer: < 4.00

Question: `CC(C)(C)c1cc(C(C)(C)C)c2oc(C(c3ccccc3)c3c[nH]c4ccc([N+](=O)[O-])cc34)cc2c1` (stereo not given) was tested. Which pIC50 (SiHa [1]) did it give?
Answer: 4.32

Question: How did the pIC50 (SiHa [1]) turn out when `CC(C)(C)c1cc(C(C)(C)C)c2oc(C(c3ccc(Cl)cc3)c3c[nH]c4ccccc34)cc2c1` (stereo not given) was run?
Answer: 4.30

Question: What about the pIC50 (C-33-A [2]) of the same compound?
Answer: 4.47

Question: With `COc1ccc2oc(C(c3ccccc3)c3c(C)[nH]c4ccccc34)cc2c1` (stereo not given) as the compound, how does the pIC50 (SiHa [1]) read?
Answer: < 4.00

Question: With `CC(C)(C)c1cc(C(C)(C)C)c2oc(C(c3ccccc3)c3c[nH]c4ccccc34)cc2c1` (stereo not given) as the compound, how does the pIC50 (SiHa [1]) read?
Answer: 4.21

Question: `COc1ccc(C(c2cc3ccccc3o2)c2c[nH]c3ccccc23)cc1` (stereo not given) was tested. Which pIC50 (SiHa [1]) did it give?
Answer: < 4.00

Question: How did the pIC50 (SiHa [1]) turn out when `O=[N+]([O-])c1ccc2[nH]cc(C(c3ccccc3)c3cc4cc(Cl)ccc4o3)c2c1` (stereo not given) was run?
Answer: < 4.00

Question: With `Cc1[nH]c2ccccc2c1C(c1ccccc1)c1cc2cc(C(C)(C)C)cc(C(C)(C)C)c2o1` (stereo not given) as the compound, how does the pIC50 (SiHa [1]) read?
Answer: 4.14

Question: `c1ccc(C(c2cc3ccccc3o2)c2c[nH]c3ccccc23)cc1` (stereo not given) was tested. Which pIC50 (SiHa [1]) did it give?
Answer: 4.15

Question: `Cc1[nH]c2ccccc2c1C(c1ccc(Cl)cc1)c1cc2cc(C(C)(C)C)cc(C(C)(C)C)c2o1` (stereo not given) was tested. Which Activity (C-33-A [3]) did it give?
Answer: Active

Question: What about the Activity (SiHa [4]) of the same compound?
Answer: Active

Question: And the Activity (SiHa [5])?
Answer: Active

Question: And the Activity (SiHa [6])?
Answer: Active

Question: What about the pIC50 (SiHa [1]) of the same compound?
Answer: 4.45

Question: What about the pIC50 (C-33-A [2]) of the same compound?
Answer: 4.51

Question: What about the Activity (SiHa [7]) of the same compound?
Answer: Active

Question: What about the Activity (C-33-A [8]) of the same compound?
Answer: Active

Question: What does the source list for `O=[N+]([O-])c1ccc2[nH]cc(C(c3ccccc3)c3cc4ccccc4o3)c2c1` (stereo not given)?
Answer: pIC50 (SiHa [1]): 4.39; pIC50 (C-33-A [2]): 4.45

Question: `Cc1c(C(c2ccccc2)c2cc3cc(C(C)(C)C)cc(C(C)(C)C)c3o2)[nH]c2ccccc12` (stereo not given) was tested. Which pIC50 (SiHa [1]) did it give?
Answer: < 4.00

Question: With `Cc1c(C(c2ccc(Cl)cc2)c2cc3ccccc3o2)[nH]c2ccccc12` (stereo not given) as the compound, how does the pIC50 (SiHa [1]) read?
Answer: 4.14

Question: `COc1ccc2oc(C(c3ccccc3)c3c[nH]c4ccccc34)cc2c1` (stereo not given) was tested. Which pIC50 (SiHa [1]) did it give?
Answer: < 4.00

Question: What does the source list for `Cc1[nH]c2ccccc2c1C(c1ccccc1)c1cc2cc(Cl)ccc2o1` (stereo not given)?
Answer: pIC50 (SiHa [1]): 4.32; pIC50 (C-33-A [2]): 4.41

Question: With `COc1ccc(C(c2cc3cc(C(C)(C)C)cc(C(C)(C)C)c3o2)c2c[nH]c3ccc([N+](=O)[O-])cc23)cc1` (stereo not given) as the compound, how does the pIC50 (SiHa [1]) read?
Answer: < 4.00

Question: Which results are given for `CC(C)(C)c1cc(C(C)(C)C)c2oc(C(c3ccc(Cl)cc3)c3c[nH]c4ccc([N+](=O)[O-])cc34)cc2c1` (stereo not given)?
Answer: Activity (C-33-A [3]): Active; Activity (SiHa [4]): Active; Activity (SiHa [5]): Active; Activity (SiHa [6]): Active; pIC50 (SiHa [1]): 4.43; pIC50 (C-33-A [2]): 4.53; Activity (SiHa [7]): Active; Activity (C-33-A [8]): Active

Question: `COc1ccc(C(c2cc3ccccc3o2)c2[nH]c3ccccc3c2C)cc1` (stereo not given) was tested. Which pIC50 (SiHa [1]) did it give?
Answer: < 4.00

Question: With `Cc1c(C(c2ccccc2)c2cc3ccccc3o2)[nH]c2ccccc12` (stereo not given) as the compound, how does the pIC50 (SiHa [1]) read?
Answer: < 4.00

Question: How did the pIC50 (SiHa [1]) turn out when `COc1ccc(C(c2cc3ccccc3o2)c2c(C)[nH]c3ccccc23)cc1` (stereo not given) was run?
Answer: < 4.00

Question: With `Cc1[nH]c2ccccc2c1C(c1ccccc1)c1cc2ccccc2o1` (stereo not given) as the compound, how does the pIC50 (SiHa [1]) read?
Answer: 4.25

Question: With `Clc1ccc2oc(C(c3ccccc3)c3c[nH]c4ccccc34)cc2c1` (stereo not given) as the compound, how does the pIC50 (SiHa [1]) read?
Answer: 4.24

Question: How did the pIC50 (SiHa [1]) turn out when `Cc1c(C(c2ccccc2)c2cc3cc(Cl)ccc3o2)[nH]c2ccccc12` (stereo not given) was run?
Answer: 4.11
